The conditions of series [1]: mouse, rat or rabbit plasma, 37° C., 10 mg/ml solution, 0 min to 4 h, HPLC. As for the experimental part:
Three parallel solutions of propofol hydroxybutyrate of Example 1 with a concentration of 10 mg/ml were prepared, added into and mixed with the mouse, rat or rabbit plasma, which was pre-placed in water bath (37° C.), respectively.
Three parallel solutions of propofol hydroxyvalerate of Example 3 with a concentration of 10 mg/ml were prepared, added into and mixed with mouse, rat or rabbit plasma, which was pre-placed in water bath (37° C.), respectively.

For the next series, the system named is Kunming mice. As to conditions: tail vein injection; for disappearance time of FRR (onset time) / recovery time (recovery of FRR): during determination of ED50; for Median effective dose (ED50), disappearance of forepaw righting reflex: up-and-down method. As for the experimental part:
(§1) 60 Kunming mice with half males and half females were randomly divided into the drug test group (propofol hydroxybutyrate of the present invention) (n=30) and the Diprivan™ control group (positive control drug Diprivan™) (n=30). Median effective doses (ED50) of the substituted phenol hydroxy acid ester and Diprivan™ were determined by the up-and-down method. In the test, the mice were injected with the drugs through the tail veins, with the disappearance of the forepaw righting reflex (FRR) of the mice as a judgment index of the end point of anesthesia; the recovery of FRR of the mice as an index of recovery from anesthesia.
as §1, with “hydroxyvalerate” for “hydroxybutyrate”, “FRR” for “the forepaw righting reflex (FRR)”

For series [2] the following is noted: disclosed in WO200213810; cited from earlier work.
For series [3] the following is noted: disclosed in WO200213810; cited from earlier work. The source holds these as a separate data set.

Molecules are shown by their SMILES.

In the case of `CC(C)c1cccc(C(C)C)c1OC(=O)CCCCO` [propofol hydroxyvalerate, propofol ω-hydroxyvalerate], the “in vitro decomposition in the plasma into the active compound propofol” value in series [1] is “can be rapidly decomposed into the active compound propofol”. Besides, in the series with Kunming mice, the “disappearance time of FRR (onset time)” value came out at 46.1 ± 9.5 s; the “recovery time (recovery of FRR)” value is 256.1 ± 61.2 s; the “Median effective dose (ED50), disappearance of forepaw righting reflex” value amounted to 60 mg/kg.
`CC(C)c1cccc(C(C)C)c1OC(=O)CCCO` [propofol hydroxybutyrate, propofol ω-hydroxybutyrate]: in series [1], the “in vitro decomposition in the plasma into the active compound propofol” value is reported as “can be rapidly decomposed into the active compound propofol”. In addition, in the series on Kunming mice, the anesthetic effect result was “definite and reversible anesthetic effect”; the “disappearance time of FRR (onset time)” value was determined as 45.3 ± 12.3 s; the “recovery time (recovery of FRR)” value is 235.6 ± 67.9 s; the “Median effective dose (ED50), disappearance of forepaw righting reflex” value is 52 mg/kg.
On to `CC(C)c1cccc(C(C)C)c1OC(=O)CCC(=O)[O-].[Na+]` [propofol succinic acid monoester sodium salt], for which the “water-solubility” value in series [2] is given as “high water-solubility”. Besides, in series [3], the “stability in aqueous solution” value is “unstable in aqueous solution”.

Source of the values: patent US9272978B2, “Hydroxy acid ester compound of substituted phenol, preparation method and medical use thereof” (West China Hospital, Sichuan University, priority 2010, dated 2016).
